Several values for one entry are separate records, joined by “and”; a condition that tells them apart may be missing. Equal values may be shown once.
Legend:
[1] = biological target: T1, Nonstructural protein 3 (Zika virus, UniProt A0A024AXB9); assay: Functional biochemical assay to identify treatments for viral infectious disease that targets Zika NS2B-NS3 protease. Utilizing a direct enzyme activity measurement method, reading the fluorescence intensity is used to characterize the relative potency of inhibitors as IC50. Synthetic construct has been made based on Zika virus (strain PRVABC59) by Centre for Medicines Discovery, University of Oxford, and the assay has been performed by Enamine biological services, Bienta Ltd.The protocol is publicly available: dx.doi.org/10.17504/protocols.io.36wgqn273gk5/v1
[2] = biological target: T1, Nonstructural protein 3; assay: Functional biochemical assay to identify treatments for viral infectious disease that targets Zika NS2B-NS3 protease. Utilizing a direct enzyme activity measurement method, reading the fluorescence intensity is used to characterize the relative potency of inhibitors as IC50.; set-up: species or system PRVABC59

T1 sequence (A0A024AXB9 whole entry): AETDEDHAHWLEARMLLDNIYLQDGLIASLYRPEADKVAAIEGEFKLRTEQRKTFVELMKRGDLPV

Compound	IC50 [1]	IC50 [2]
N=C(N)NCCC[C@H](NC(=O)[C@H](Cc1ccc(CN)cc1)NC(=O)c1ccccc1)B(O)O	559 nM and 327 nM and 558 nM and 628 nM and 585 nM and 637 nM and 438 nM and 552 nM and 595 nM	508 nM and 353 nM and 260 nM and 186 nM and 245 nM and 211 nM (2×) and 238 nM and < 2.49 µM (9×) and 73 nM and 247 nM and 292 nM and 237 nM and 241 nM and 141 nM and 262 nM and 254 nM and 233 nM
Cc1c(C(=O)Nc2cccc(CS(C)(=O)=O)c2)cc(C2CC2)n1C	> 25000 nM	> 25000 nM
O=C1Cc2c(cccc2C(=O)Nc2ccc3c(c2)[C@H](O)CCO3)N1	> 25000 nM	> 25000 nM
O=C1Cc2c(cccc2C(=O)Nc2ccnn2Cc2ccncc2)N1	> 25000 nM	> 25000 nM
NC(=O)COc1ccc(Br)cc1[C@H](Nc1ccc2c(c1)CNC2)C(=O)NCC(F)F	193 nM and 233 nM	69 nM and 55 nM
CC(C)CNC(=O)c1cc(Cl)cc2[nH]c(-c3cccc(C#N)c3)nc12	> 25000 nM	> 25000 nM
CC(=O)N(c1ccc2c(c1)CNC2)[C@]1(c2cc(Cl)cc(C3CC3)c2)CN(C)C1=O	> 25000 nM	22700 nM
CO[C@H]1Cc2ccc(NC(=O)c3cc(C4CC4)n(C)c3C)cc2C1	> 25000 nM	> 25000 nM
O=C(NCC(F)F)[C@H](Nc1ccc2c(c1)CNC2)c1cc(Br)cc2nc[nH]c12	201 nM	44 nM and 37 nM
O=C1Cc2c(cccc2C(=O)Nc2nnc3n2CCCS3)N1	> 25000 nM	> 25000 nM
O=C(O)COc1ccc(Cl)cc1[C@H](Nc1ccc2c(c1)CNC2)C(=O)NCC(F)F	260 nM	182 nM
NC(=O)c1cn(C2CCCC2)nc1NC(=O)c1cccc2c1CC(=O)N2	> 25000 nM	> 25000 nM
O=C1Cc2c(cccc2C(=O)Nc2cnn(Cc3ccncc3)c2)N1	> 25000 nM	> 25000 nM
C=C(C)c1ccc(Cl)cc1[C@H](Nc1ccc2c(c1)CNC2)C(=O)NCC(F)F	320 nM and 334 nM	297 nM
N#CCOc1ccc(Br)cc1[C@H](Nc1ccc2c(c1)CNC2)C(=O)NCC(F)F	135 nM and 143 nM	57 nM and 42 nM
Clc1cc(CNc2ccc3c(n2)CNC3)c2cn[nH]c2c1	> 25000 nM	> 25000 nM
O=C1Cc2c(cccc2C(=O)Nc2ccc3c(c2)CCNCC3)N1	2110 nM	1230 nM
N#Cc1cccc(-c2nc3c(C(=O)Nc4cccc(F)c4)cc(Cl)cc3[nH]2)c1	> 25000 nM	> 25000 nM
O=C(Nc1cnc2c(c1)CNC2)c1cc(F)cc2[nH]ncc12	83 nM	27 nM and 15 nM
O=C(NCC(F)F)[C@H](Nc1cc2c(cc1Br)CNC2)c1cc(Cl)cc(C2CC2)c1	106 nM and 91 nM	19 nM and 13 nM
CNC(=O)c1cc(Br)cc([C@H](Nc2ccc3c(c2)CNC3)C(=O)NCC(F)F)c1	104 nM and 88 nM	19 nM and < 12 nM
O=C(Nc1ccc2c(c1)CN[C@H]2CC1CC1)c1cc(F)cc2[nH]ncc12	317 nM and 284 nM	192 nM

Compound	IC50 [1]	IC50 [2]
O=C1Nc2ccc(C(=O)Nc3ccc4c(c3)CNC4)cc2C1=O	8150 nM	1470 nM and 1730 nM
CC1(C)NCc2cc(NC(=O)c3cc(F)cc4[nH]ncc34)ccc21	18100 nM and > 25000 nM	9190 nM
COc1ccc(-c2nc3c(C(=O)Nc4ccc5c(c4)CNC5)cc(F)cc3[nH]2)nn1	90 nM and 98 nM	23 nM (2×) and 14 nM and 27 nM
CC(C)(C)OC(=O)N1Cc2ccc(N[C@H](C(=O)O)c3cc(Cl)cc4[nH]ncc34)cc2C1	> 25000 nM	> 25000 nM
C[C@H]1NCc2ccc(NC(=O)c3cc(Cl)cc4[nH]ncc34)cc21	3580 nM and 3950 nM	1510 nM
N#CCc1cc(NC(=O)c2cc(F)cc3[nH]ncc23)cc2c1CNC2	70 nM and 79 nM	16 nM and < 12 nM
CC(=O)N[C@]1(C)C(=O)Nc2cc(F)cc(C(=O)Nc3ccc4c(c3)CNC4)c21	3720 nM	2380 nM
O=C(NCC(F)F)[C@H](Nc1cnc2c(c1)CNC2)c1cc(Cl)cc(C2CC2)c1	114 nM and 107 nM	20 nM and < 12 nM
NCc1csc2cc(C(=O)Nc3ccc4c(c3)CNC4)ccc12	216 nM	125 nM and 219 nM
O=C1Cc2c(cccc2C(=O)Nc2cc(Br)c3ncnn3c2)N1	> 25000 nM	> 25000 nM
C[C@]1(S(C)(=O)=O)C(=O)Nc2cc(F)cc(C(=O)Nc3ccc4c(c3)CNC4)c21	7760 nM and 9210 nM	3990 nM
NCCCn1c(C2CC2)cc(C(=O)Nc2cc([C@H]3CCOC3)ccn2)c1C1CC1	> 25000 nM	> 25000 nM
O=C(Nc1ccc2c(c1)CNC2)c1cccc2c(C3CNC3)n[nH]c12	89 nM	17 nM and 16 nM and < 12 nM
Cc1c(C(=O)Nc2ccc3c(c2F)CCN(C)C3=O)cc(C2CC2)n1C	> 25000 nM	> 25000 nM
O=C1Cc2c(cccc2C(=O)Nc2cccc(-c3cn[nH]c3)c2)N1	> 25000 nM	> 25000 nM
O=C1Cc2c(cccc2C(=O)Nc2cccc(Cc3nn[nH]n3)c2)N1	> 25000 nM	> 25000 nM
O=C(Nc1ccc2c(c1)CN[C@H]2C1CC1)c1cc(F)cc2[nH]ncc12	255 nM and 550 nM	215 nM
NCc1cccc(NC(=O)c2cccc3c2CC(=O)N3)c1	2320 nM	1540 nM
CS(=O)(=O)c1cncc(-c2cc(F)cc(C(=O)Nc3ccc4c(c3)CNC4)c2)c1	158 nM	88 nM and 77 nM
Cc1c(C(=O)Nc2ccc3c(c2)C(=O)NC3)cc(C2CC2)n1C	> 25000 nM	> 25000 nM
O=C(NCC(F)F)[C@H](Nc1ccc2c(c1)CNC2)c1cc(Br)cc2cn[nH]c12	141 nM and 127 nM	29 nM and 20 nM
N#Cc1cccc(-c2nc3c(C(=O)Nc4ccccn4)cc(Cl)cc3[nH]2)c1	> 25000 nM	> 25000 nM

Compound	IC50 [1]	IC50 [2]
O=C(NCC(F)F)[C@H](Nc1ccc2c(c1)CNC2)c1cc(Br)ccc1C1CC1	636 nM	358 nM
Nc1ccncc1-c1cc(F)cc(C(=O)Nc2ccc3c(c2)CNC3)c1	146 nM	54 nM and 38 nM
CCc1cnc2c(NC(=O)c3cccc4c3CC(=O)N4)cnn2c1	> 25000 nM	> 25000 nM
C[C@H]1C(=O)Nc2ccc(C(=O)Nc3ccc4c(c3)CNC4)cc21	4160 nM and 3340 nM	10700 nM
O=C1C[C@H](c2cccc(-c3cc(F)cc(C(=O)Nc4ccc5c(c4)CNC5)c3)c2)N1	130 nM and 131 nM	77 nM and 66 nM
CC(=O)N(c1ccc2c(c1)CNC2)[C@]1(c2cc(Cl)cc(C3CC3)c2)CCCN(C)C1=O	> 25000 nM	> 25000 nM
O=C1Cc2c(cccc2C(=O)Nc2nc([C@H]3CCCOC3)cs2)N1	> 25000 nM	> 25000 nM
Cc1c(C(=O)Nc2cccc(CN3CCCC3=O)c2)cc(C2CC2)n1C	> 25000 nM	> 25000 nM
CN(C)C(=O)C[C@H]1NCc2cc(NC(=O)c3cc(F)cc4[nH]ncc34)ccc21	502 nM and 1320 nM	487 nM
NCCc1cccc(NC(=O)c2cccc3c2CC(=O)N3)c1	533 nM	333 nM
O=C(NCC(F)F)[C@H](Nc1ccc2c(c1)CNC2)c1cc(Br)cc2ccccc12	143 nM and 147 nM	99 nM and 77 nM
C[C@H]1NCc2cc(NC(=O)c3cc(F)cc4[nH]ncc34)ccc21	646 nM and 1460 nM	488 nM
O=C1Cc2c(cccc2C(=O)Nc2ccc(N3CCOC3=O)nc2)N1	> 25000 nM	> 25000 nM
O=C(NCC(F)F)[C@H](Nc1ccc2c(c1)CNC2)c1cc(Br)ccc1Oc1ccc(Cl)c(Cl)c1	198 nM and 238 nM	212 nM
Cc1cc(NC(=O)c2cc(C3CC3)n(C)c2C)ccc1OC1CCOCC1	> 25000 nM	> 25000 nM
O=C(Nc1cc2c(cn1)CNC2)c1cc(F)cc2[nH]ncc12	163 nM	77 nM and 55 nM
O=C(Nc1ccc2c(c1)CN[C@H]2C(=O)O)c1cc(F)cc2[nH]ncc12	3180 nM and 3280 nM	1330 nM
Cc1c(C(=O)Nc2ccc3c(c2)CN(C)C3=O)cc(C2CC2)n1C	> 25000 nM	> 25000 nM
C[C@H](NC(=O)c1cccc2c1CC(=O)N2)c1nnc2n1CCCC2	> 25000 nM	> 25000 nM
N[C@H]1Cc2ccc(NC(=O)c3cccc4c3CC(=O)N4)cc2C1	7500 nM	2770 nM
CC(C)n1nncc1-c1cc(F)cc(C(=O)Nc2ccc3c(c2)CNC3)c1	3460 nM	1870 nM

Reference: ChEMBL document CHEMBL5604062, “ASAP - ZIKV NS2B-NS3 protease fluorescence dose response” (2024)
